Test results as given in ChEMBL document CHEMBL5143619, “Antimicrobial Prenylated Isoflavones from the Leaves of the Amazonian Medicinal Plant Vatairea guianensis Aubl” (J Nat Prod, 2022).

Tests used:
[1] = Selectivity index, ratio of IC50 for human HaCaT cells to IC50 for human HCT-116 cells; format: toxicity; conditions: read-out: Ratio IC50
[2] = test system: HCT-116; assay: Cytotoxicity against human HCT-116 cells assessed as reduction in cell viability incubated for 24 hrs by CellTiter-Blue cell viability assay; format: functional, cell-based; conditions: HCT-116, 24 h
[3] = test system: A-375; assay: Cytotoxicity against human A-375 cells assessed as reduction in cell viability incubated for 24 hrs by CellTiter-Blue cell viability assay; format: functional, cell-based; conditions: A-375, 24 h
[4] = Cytotoxicity against human HaCaT cells assessed as reduction in cell viability incubated for 24 hrs by CellTiter-Blue cell viability assay; format: toxicity, cell-based
[5] = Selectivity index, ratio of IC50 for human HaCaT cells to IC50 for human A-375 cells; format: toxicity; conditions: read-out: Ratio IC50
[6] = test system: MDA-MB-231; assay: Cytotoxicity against human MDA-MB-231 cells assessed as reduction in cell viability incubated for 24 hrs by CellTiter-Blue cell viability assay; format: functional, cell-based; conditions: MDA-MB-231, 24 h
[7] = Selectivity index, ratio of IC50 for human HaCaT cells to IC50 for human MDA-MB-231 cells; format: toxicity; conditions: read-out: Ratio IC50
[8] = Selectivity index, ratio of IC50 for human HaCaT cells to IC50 for antibacterial activity against methicillin-resistant Staphylococcus aureus; format: toxicity; conditions: read-out: Ratio IC50
[9] = test system: Staphylococcus aureus; assay: Antibacterial activity against methicillin-resistant Staphylococcus aureus assessed as bacterial growth inhibition incubated for 5 hrs under shaking condition by resazurin dye based assay; format: functional, organism-based
[10] = Selectivity index, ratio of IC50 for human HaCaT cells to IC50 for antifungal activity against Candida albicans; format: toxicity; conditions: read-out: Ratio IC50
[11] = Selectivity index, ratio of IC50 for human HaCaT cells to IC50 for antifungal activity against Trichophyton rubrum; format: toxicity; conditions: read-out: Ratio IC50
[12] = test system: Trichophyton rubrum; assay: Antifungal activity against Trichophyton rubrum assessed as fungal growth inhibition incubated for 72 hrs by microplate reader analysis; format: functional, organism-based
[13] = Selectivity index, ratio of IC50 for human HaCaT cells to IC50 for antibacterial activity against Enterococcus faecium; format: toxicity; conditions: read-out: Ratio IC50
[14] = Selectivity index, ratio of IC50 for human HaCaT cells to IC50 for antifungal activity against Cryptococcus neoformans; format: toxicity; conditions: read-out: Ratio IC50
[15] = test system: Enterococcus faecium; assay: Antibacterial activity against Enterococcus faecium assessed as bacterial growth inhibition incubated for 5 hrs by bromocresol purple dye based assay; format: functional, organism-based
[16] = test system: Cryptococcus neoformans; assay: Antifungal activity against Cryptococcus neoformans assessed as fungal growth inhibition incubated for 5 hrs by microplate reader analysis; format: functional, organism-based
[17] = test system: Candida albicans; assay: Antifungal activity against Candida albicans assessed as fungal growth inhibition incubated for 5 hrs under shaking condition by resazurin dye based assay; format: functional, organism-based

Compound: CC(C)=CCc1c(O)cc(O)c2c(=O)c(-c3ccc(O)cc3)coc12
- selectivity ratio [1]: 0.9
- IC50 [2]: 187 µM
- IC50 [3]: 88.5 µM
- IC50 at 24 h [4]: 160 µM
- selectivity ratio [5]: 1.8

Compound: COc1cc(-c2coc3c(CC=C(C)C)c(O)cc(O)c3c2=O)ccc1O
- selectivity ratio [1]: 1.9
- IC50 [2]: 110 µM
- IC50 [6]: 87.5 µM
- IC50 [3]: 58.2 µM
- IC50 at 24 h [4]: 80.7 µM
- selectivity ratio [7]: 1.5
- selectivity ratio [5]: 1.4

Compound: CC(C)(O)CCc1c(O)cc(O)c2c(=O)c(-c3ccc(O)cc3)coc12
- selectivity ratio [1]: 1.4
- IC50 [2]: 222 µM
- IC50 [6]: 154 µM
- IC50 [3]: 160 µM
- IC50 at 24 h [4]: 135 µM
- selectivity ratio [7]: 0.9
- selectivity ratio [5]: 0.8

Compound: COc1ccc(-c2coc3c(CC=C(C)C)c(O)cc(O)c3c2=O)cc1O
- selectivity ratio [8]: 10.3
- selectivity ratio [1]: 0.8
- IC50 [9]: 6.8 µM
- selectivity ratio [10]: 2.6
- selectivity ratio [11]: 5.7
- IC50 [12]: 12.2 µM
- IC50 [2]: 87.5 µM
- selectivity ratio [13]: 5.5
- IC50 [6]: 110 µM
- IC50 [3]: 58.4 µM
- selectivity ratio [14]: 5.1
- IC50 at 24 h [4]: 69.8 µM
- selectivity ratio [7]: 0.6
- IC50 [15]: 12.8 µM
- IC50 [16]: 13.6 µM
- IC50 ([17]; Candida albicans, 5 h): 26.9 µM
- selectivity ratio [5]: 1.2

Compound: CC(C)(O)CCc1c(O)cc(O)c2c(=O)c(-c3ccc(O)c(O)c3)coc12
- selectivity ratio [8]: 2.9
- IC50 [9]: 29.6 µM
- IC50 at 24 h [4]: 85.9 µM

Compound: COc1cc(-c2coc3c(CCC(C)(C)O)c(O)cc(O)c3c2=O)ccc1O
- selectivity ratio [8]: 5.6
- selectivity ratio [1]: 0.9
- IC50 [9]: 37 µM
- IC50 [2]: 234 µM
- selectivity ratio [13]: 2.6
- IC50 [3]: 250 µM
- IC50 at 24 h [4]: 207 µM
- IC50 [15]: 80.6 µM
- selectivity ratio [5]: 0.8

Compound: COc1ccc(-c2coc3c(CCC(C)(C)O)c(O)cc(O)c3c2=O)cc1O
- selectivity ratio [8]: > 5.5
- IC50 [9]: 49 µM

Compound: C[C@@H]1[C@H](O)[C@@H](C)/C=C/C=C/C=C/C=C/C=C/C=C/C=C/[C@H](O[C@@H]2O[C@H](C)[C@@H](O)[C@H](N)[C@@H]2O)C[C@@H]2O[C@](O)(C[C@@H](O)C[C@@H](O)[C@H](O)CC[C@@H](O)C[C@@H](O)CC(=O)O[C@H]1C)C[C@H](O)[C@H]2C(=O)O [AMPHOTERICIN B]
- IC50 [16]: 0.2 µM

Compound: CC1(C)S[C@@H]2[C@H](NC(=O)[C@H](N)c3ccccc3)C(=O)N2[C@H]1C(=O)O [AMPICILLIN]
- IC50 [15]: 0.6 µM

Compound: O=C(N[C@H](CO)[C@H](O)c1ccc([N+](=O)[O-])cc1)C(Cl)Cl [CHLORAMPHENICOL]
- IC50 [9]: 3.1 µM

Compound: Clc1ccccc1C(c1ccccc1)(c1ccccc1)n1ccnc1 [CLOTRIMAZOLE]
- IC50 [12]: 0.3 µM

Compound: COc1cccc2c1C(=O)c1c(O)c3c(c(O)c1C2=O)C[C@@](O)(C(=O)CO)C[C@@H]3O[C@H]1C[C@H](N)[C@H](O)[C@H](C)O1 [DOXORUBICIN]
- IC50 [2]: 49.5 µM
- IC50 [6]: 25.8 µM
- IC50 [3]: 0.4 µM
- IC50 at 24 h [4]: 50 µM

Compound: NYSTATIN
- IC50 [17]: 1.3 µM
